The values below come from patent US20240009170A1, “INHIBITION OF GLYCOGEN SYNTHASE KINASE-3 (GSK-3)” (Brown University, priority 2020, published 2024).

The test system of series [1] is HCT-116 colorectal cancer cells. As to the kind of experiment: Co-culture of HCT-116 and NK-92 cells with or without αPD-1 therapy. It is filed as cell-based, Human. As to conditions: 9-ING-41+NK-92. The protocol:
(§1) Immune cell co-culture experiments. Co-culture experiments were conducted with GFP+ SW480 or HCT-116 colorectal cancer cells and either NK-92 natural killer cells or TALL-104 T cells in a 48-well plate, in the presence or absence of 9-ING-41. HCT-116 cells were labeled using CellTracker™ Green CMFDA (5-chloromethylfluorescein diacetate), immune cells (NK-92, TALL-104) were labeled using CellTracker™ Blue CMAC Dye (7-amino-4-chloromethylcoumarin), and ethidium homodimer-1 (EthD-1) was used as a marker of cell death (Invitrogen, Thermo Fisher Scientific, Waltham, MA, USA).

The next series concerns CT-26. As to the kind of experiment: Syngeneic murine colon carcinoma BALB/c model with MSS cell line CT-26, survival and response. To be noted: mouse, in vivo.
A further series has as its system SW480 tumor cells. As to the kind of experiment: Immune cell co-culture of TALL-104 T cells and SW480 tumor cells. As to conditions: for dead cells out of total cells, average, after normalization: 1:1 TALL-104 to SW480. In kind it is cell-based, Human. The protocol: as §1
Co-culture experiments were conducted with GFP+ SW480 colorectal cancer cells and either NK-92 natural killer cells or TALL-104 T cells at various effector/target ratios in a 48-well plate, in the presence or absence of 9-ING-41.
The compound 9-lNG-41 boosts immune cell-mediated tumor cell-killing in a co-culture model. A co-culture of GFP+ SW480 tumor cells and Green CMFDA-labeled TALL-104 T cells treated with 9-ING-41 lead to an increase in tumor cell death after twenty-four hours. […] In the co-culture with tumor and immune cells only, in the absence of drug, the inventors noted that the percentage of dead cells out of total cells was approximately 27%, after normalization. Normalization was carried out by subtracting the percentage of cell death due to drug or vehicle control (DMSO) only from the percentage of dead cells observed in the co-culture treated with drug.
Pre-treatment with 9-ING-41 sensitizes SW480 tumor cells to immune cell-mediated cell killing. To determine if the increased amount of immune-cell mediated tumor cell-killing was due to the drug's impact on the tumor cells or the immune cells, the inventors next pre-treated tumor cells with 9-ING-41 for twenty-four hours before the co-culture with immune cells began. Pre-treatment with 9-ING-41 sensitized SW480 tumor cells to TALL-104 cell-mediated cell killing. The raw percentages of cell death were used to normalize the data. The inventors confirmed these co-culture results using healthy, CD8+ T cells instead of TALL-104 cells.

Series [2] has as its system HT-29 colorectal cancer cells. As to the kind of experiment: Western blot analysis, HT-29. It is filed as cell-based, Human. The protocol:
Western blot analysis. Cells were plated in a 6-well plate and incubated overnight before the spent media was replaced with drugged media. Drug treatment lasted for indicated durations. Protein was extracted using radioimmunoprecipitation (RIPA) assay buffer (Cat #R0278, Sigma-Aldrich, St. Louis, MO) containing cOmplete™ Mini, EDTA-free Protease Inhibitor Cocktail (Cat #4693159001, Roche, Basel, Switzerland). Denaturing sample buffer was added, samples were boiled at 95 degrees for 10 minutes. An equal amount of protein lysate was electrophoresed through NuPAGE™ 4 to 12%, Bis-Tris, 1.5 mm, Mini Protein Gels (Invitrogen, Waltham, MA, USA) then transferred to PVDF membranes. The PVDF membrane was blocked with 5% non-fat milk (Sigma-Aldrich, St. Louis, MO, USA) in 1× TTBS. Primary antibodies were incubated with the transferred PVDF membrane in blocking buffer at 4° C. overnight. Secondary antibodies used included goat anti-rabbit IgG (H+L) secondary antibody, HRP (Cat #31460, Invitrogen, Waltham, MA, USA) and goat anti-mouse IgG (H+L) secondary antibody, HRP (Cat #31430, Invitrogen, Waltham, MA, USA). Signal was detected using a Syngene Imaging System.
9-ING-41 treatment decreases survival factor expression while increasing PD-L1 levels in colorectal cancer cell lines. To elucidate the mechanism behind the differential effects of 9-ING-41 on either colorectal cancer or immune cells in co-culture and cytokine profiling assays, the inventors performed Western blot analyses on tumor and immune cells treated with 9-ING-41 over a 72-hour time course.
Treating cells from colorectal cancer cell lines with 1 μM 9-ING-41 decreases Surivin, NF-κB p65, and IκBα while increasing PD-L1 levels in, 9-ING-41 treatment of immune cells increases NIK. Western blot analysis of HCT-116 and HT-29 colorectal cancer cells for expression of indicated proteins after increasing durations of 9-ING-41 treatment (0-72 hours). Western blot analysis of TALL-104 T cells for expression of indicated proteins after increasing durations of 9-ING-41 treatment (0-72 hours). […]
(Immunoblotting shows a protein as a band on a membrane.)

The subject of another series is ovarian cancer. To be noted: cited from earlier work.
The subject of the next series is HCT-116. Description: Flow cytometric analysis of cell surface markers, HCT-116. In kind it is cell-based, Human. As to conditions: post-treatment. As for the experimental part:
FIG. 12 is a set of bar graphs showing flow cytometric analyses of cell surface markers of tumor and immune cells treated with 9-ING-41 in vitro. FIG. 12(A) HCT-116, FIG. 12(B) HT-29, FIG. 12(C) TALL-104, and FIG. 12(D) NK-92 cells were treated with indicated concentrations of 9-ING-41 for forty-eight hours, stained for indicated cell surface marker expression, and analyzed with a BD LSRII. Statistical significance was determined using two-tailed unpaired T tests.
To further understand the differential 9-ING-41-mediated impacts on protein expression, the inventors treated tumor and immune cells in vitro with 9-ING-41, then performed a flow cytometric analysis for expression of cell surface markers. […] A similar trend occurred in HT-29 cells, although not statistically significant. […] FIG. 10(C). […] FIG. 10(D).
(In general: In flow cytometry, cells or beads pass a laser one at a time.)

Series [3] in a line: Body weight, complete blood count and serum chemistry in the CT-26 BALB/c model. Further details: species or system BALB/c mice. As to conditions: mouse, in vivo. An excerpt: As can be expected in mice with significant tumor burdens, mice across treatment groups had decreased albumin levels and evidence of mild marrow hypoplasia resulting in mild anemia, and lower white blood cell and platelet counts. This effect was independent of treatment group and likely related to tumor burden at the time of sacrifice.

Structures are written as SMILES. “Also recorded” adds a separate entry of the source.

Turning to `Cn1cc(C2=C(c3coc4ccc(F)cc34)C(=O)NC2=O)c2cc3c(cc21)OCO3` [9-ING-41], the “benefit over combination αPD-1 therapy+NK-92 only groups” value in series [1] is listed as “significant benefit”. For the same compound, the “survival compared to control group” value in the series on CT-26 was “statistically significant improved survival; also recorded: prolonged the survival”. Besides, the “dead cells out of total cells, average, after normalization” value in the series on SW480 tumor cells (5 μM 9-ING-41, 24-hour co-culture) is on record as 33%. Moreover, in the series with SW480 tumor cells (10 μM 9-ING-41, 24-hour co-culture), the “dead cells out of total cells, average, after normalization” value is recorded as 37%. Moreover, the “amount of TALL-104 cell-mediated SW480 cell-killing” value in the series on SW480 tumor cells (after treatment, 24 hours) is “dose-dependent increase”. Further, the “T cell (TALL-104) killing of colorectal cancer cells” value in the series on SW480 tumor cells (compared to controls without drug treatment) is recorded as “significant increase”. Besides, in the series on SW480 tumor cells (monoculture, no immune cells), the “tumor cell death in SW480 monocultures treated with drug only” value is given as “Limited tumor cell death”. Moreover, in the series with SW480 tumor cells (tumor cells pre-treated 24 hours before co-culture), the “TALL-104 cell-mediated cell killing after tumor cell pre-treatment” value is reported as “sensitized”. For the same compound, in series [2] (0-72 hours), the “IKKβ and Nik” value is reported as “did not change”. The PD-L1 result in series [2] (as treatment duration increased) was “increased”. For the same compound, the “Survivin, NF-KB, IKBα, pIKBα, and Bcl-2” value in series [2] (by the 72-hour timepoint) is listed as “decreased”. For the same compound, the “activity compared with lithium and other ATP-competitive inhibitors such as SB216763” value with ovarian cancer is listed as “more active”. In the series with HCT-116, the DR5 expression result is “significant decreased” and the ICAM-1 expression result is on record as “significant increase”. For the same compound, the “HLA-E and PD-L1 surface expression” value in the series with HCT-116 (48 hours) is “statistically significant increase”. Moreover, in series [3], the electrolyte perturbations result is listed as “free of significant electrolyte perturbations”; the “renal function (blood urea nitrogen and creatinine)” value is recorded as “maintained normal renal function”.
